The Km is the substrate concentration at which the rate is half of its maximum.

In this assay the test system is T1, TreS (recombinant trehalose synthase).
T1 construct: pET-22b(+), E. coli BL21(DE3), Ni-NTA; His6 tag kept (C-terminal per Methods, N-terminal with 13 extra residues per Results)
Nature of the assay: HPLC-RID of sugars, Lineweaver-Burk. The format is biochemical, uncultured bacterium. The settings on record: pH 9.0, 45 °C, 30 min, 200 mM sodium phosphate.

`OC[C@H]1O[C@H](O[C@H]2[C@H](O)[C@@H](O)C(O)O[C@@H]2CO)[C@H](O)[C@@H](O)[C@@H]1O` (some centres unmarked) [maltose]: the Km is 9 ± 1.2 mM.
With `OC[C@H]1O[C@H](O[C@H]2O[C@H](CO)[C@@H](O)[C@H](O)[C@H]2O)[C@H](O)[C@@H](O)[C@@H]1O` [trehalose], the Km stood at 64 ± 3.5 mM.

Source of the values: article PMC3797794, “Identification and Characterization of a Novel Trehalose Synthase Gene Derived from Saline-Alkali Soil Metagenomes” (PLoS ONE, 2013).
